Measured values from PMC8894159, “Paltusotine, a novel oral once-daily nonpeptide SST2 receptor agonist, suppresses GH and IGF-1 in healthy volunteers” (Pituitary, 2022).

Key:
[1] = Safety and tolerability, single-dose cohorts; type: in vivo, human
Method: Adverse events and concomitant medications were recorded. Laboratory samples for clinical chemistry, hematology, coagulation tests, and urinalysis were collected under fasted conditions. Participants who discontinued prematurely attended an early termination visit.
For the safety analysis, adverse events were coded using the Medical Dictionary for Regulatory Activities (MedDRA® Version 20.0). Adverse events were grouped by preferred terms. Treatment-emergent adverse events (TEAEs) were summarized with descriptive statistics.

[2] = parameters: method as in doi:10.1530/endoabs.70.AEP627; conditions: separate study, cited from earlier work
[3] = system: stimulated-GH and IGF-1 secretion; parameters: method as in ref 13 = [13]; 13. Betz SF Markison S Kusnetzow AK Athanacio JD Rico-Bautista E Madan A Suppression of growth hormone and insulin-like growth factor 1 in rats after oral administration of CRN00808, a small molecule; conditions: cited from earlier work
serum IGF-1 = test: Serum IGF-1 suppression in healthy volunteers; type: in vivo, human
Method: For assessment of serum IGF-1, in the single-dose cohorts, serum IGF-1 was collected on Day - 1 and Day 1 (pre-dose to 18 h post-dose), and Day 2 and 7 (at approximately the same time GHRH was administered on Day 1). In the M1 cohort, IGF-1 samples were obtained pre-dose, 6 and 12 h post-dose on Days - 1, 1 and 7; pre-dose and 12 h post-dose on Days 2–6; and at approximately the same time as dosing on Days 8, 10, and 14. For M2 and subsequent cohorts, IGF-1 samples were obtained pre-dose, 6 and 12 h post-dose on Days - 1, 1 and 10; pre-dose and 12 h post-dose on Days 2–9; and at approximately the same time as dosing on Days 11, 14, and 21.
Serum was isolated, stored, and analyzed for IGF-1 and GH according to the instructions from the manufacturer (IGF-1 and human GH diagnostic assay, Siemens Immulite® 1000 systems).
The study endpoints were effects of paltusotine on GHRH-stimulated GH and IGF-1 (pharmacodynamics), pharmacokinetics (including formulation and food effects), safety, and tolerability. For the analysis of effects paltusotine on GHRH-stimulated GH and IGF-1, the pharmacodynamic population included all randomized participants in the 1.25 mg, 2.5 mg, 5 mg, 10 mg, and 20 mg (S1, S2, S3, S4A, and S5) single-dose cohorts who received any amount of study drug and had at least one post-baseline pharmacodynamic assessment. The percent change in serum GH area under the curve (AUC) from 0 to 2 h (AUC0-2) from baseline was compared using ANOVA between each dosing cohort and all participants who received placebo. The single-dose pharmacodynamic population included 39 participants from the S1, S2, S3, S4, and S5 cohorts (paltusotine n = 29; placebo n = 10). […] For multiple-dose cohorts, only participants who received all doses were included. A change in IGF-1 levels 12 h post last dose from baseline (average of 3–4 measurements) were compared by ANOVA between each dosing cohort and all participants who received placebo. The multiple-dose pharmacodynamic population included 31 participants from the M1, M2, M3, and M4 cohorts (paltusotine n = 21; placebo n = 10).

[4] = Relative bioavailability of capsule versus solution and food effect (10 mg); type: in vivo, human; conditions: for Tmax: human, plasma, oral
Method: Screening occurred within 28 days prior to the first administered dose (Day 1) in both single-dose and multiple-dose cohorts. Participants were confined to a clinical research unit from Day -2 until the day after the last dose. Dosing of paltusotine or placebo commenced on Day 1 after baseline studies. Participants fasted overnight for ≥ 10 h prior to each dose administration and remained fasting until 4 h post-dose (after collection of the last GH sample after growth hormone-releasing hormone [GHRH] challenge). For the food effect cohort, the study drug was administered 30 min after a high-fat and high-calorie breakfast. Crinetics Pharmaceuticals, Inc (San Diego, CA) provided the active ingredient, paltusotine (3-[4-(4-Aminopiperidin-1-yl)-3-(3,5-difluorophenyl)quinolin-6-yl]-2-hydroxybenzonitrile hydrochloride; CRN00808), for administration as either an oral solution (prepared on site at the Phase 1 unit) or as capsules (placebo, 5 mg, and 20 mg).
In the single-dose phase, participants were randomized 6:2 to paltusotine (1.25, 2.5, 5, 10, 20, 40, and 60 mg) or placebo in 7 cohorts (S1 to S7). Cohorts comparing oral bioavailability of solution versus capsules and the effect of a standardized high-fat, high-calorie breakfast on oral bioavailability of the capsule formulation employed the 10 mg dose level. In the multiple-dose phase, participants were randomized 6:3 to once-daily oral paltusotine capsules or placebo at doses of 5 mg for 7 days (M1, Day Last = Day 7), and 10, 20, and 30 mg daily for 10 days (M2, M3, M4, Day Last = Day 10). The initial starting dose of 1.25 mg in the single-dose phase was selected for this study based on nonclinical pharmacologic activity, pharmacokinetics, and safety studies. Subsequent doses were either specified in the protocol or were selected by the safety review committee responsible for the safety oversight of the study.
For assessing pharmacokinetics of paltusotine, the single-dose pharmacokinetic population included all randomized participants who received any amount of study drug with sufficient plasma concentration data. For the multiple-dose cohorts, only participants who received all doses were included. The relative bioavailability of the capsule formulation was determined by comparing its pharmacokinetic parameters with those of the solution formulation at the 10 mg dose. Food effect was determined at the same dose by comparing pharmacokinetic parameters in the fasting state to those when paltusotine was administered with a high-fat, high-calorie meal. For both formulation and food effect, ANOVA with treatment as a fixed effect and subject as a random effect was performed. Data for peak concentration (Cmax), AUC0-last, and AUC0-inf were natural log-transformed.

[5] = single-dosing, safety population N = 41

Structure (SMILES): Cl.N#Cc1cccc(-c2ccc3ncc(-c4cc(F)cc(F)c4)c(N4CCC(N)CC4)c3c2)c1O [paltusotine, 3-[4-(4-Aminopiperidin-1-yl)-3-(3,5-difluorophenyl)quinolin-6-yl]-2-hydroxybenzonitrile hydrochloride]
- life-threatening events or deaths ([1]; all cohorts): No life-threatening events or deaths occurred
- tolerability ([1]; single-dose administration): well tolerated
- share of TEAEs occurring at a dose level of 10 mg or higher ([1]; single-dose cohorts): 64%
- Abdominal distension (TEAE) [1, 5]: 2 (4.9%) n (%)
- Abdominal pain (TEAE) [1, 5]: 2 (4.9%) n (%)
- Abdominal pain upper (TEAE) [1, 5]: 2 (4.9%) n (%)
- Back pain (TEAE) [1, 5]: 2 (4.9%) n (%)
- Fatigue (TEAE) [1, 5]: 2 (4.9%) n (%)
- Headache (TEAE) [1, 5]: 5 n (%)
- Hypoesthesia (TEAE) [1, 5]: 2 (4.9%) n (%)
- Nausea (TEAE) [1, 5]: 2 (4.9%) n (%)
- Participants with at least 1 TEAE [1, 5]: 28 (68.3%) n (%)
- Tension headache (TEAE) [1, 5]: 2 (4.9%) n (%)
- Ventricular tachycardia (non-sustained) (TEAE) [1, 5]: 2 (4.9%) n (%)
- Headache (TEAE) ([1]; single-dosing, safety population N = 41, listed as Paltusotine): 5 (12.2%) n (%)
- mean absolute oral bioavailability ([2]; oral solution): 70%
- t1/2 after intravenous administration ([2]; sampling up to 144 h): 29 h
- stimulated-GH and IGF-1 secretion in rats [3]: suppresses stimulated-GH and IGF-1 secretion
- IGF-1 suppression (serum IGF-1; 5 mg once daily, Day 7, relative to baseline): 19%
- additional time IGF-1 remained suppressed after the final dose (serum IGF-1; 10 mg cohort, final dose on Day 10): 4 days
- IGF-1 suppression (serum IGF-1; 10 mg once daily, Day 10, relative to baseline): 37%
- IGF-1 suppression (serum IGF-1; 20 mg once daily, Day 10, relative to baseline): 37%
- IGF-1 suppression (serum IGF-1; 30 mg once daily, Day 10, relative to baseline): 30%
- maximal degree of IGF-1 suppression (serum IGF-1; multiple-dose cohorts): up to 37%
- time to near-maximum IGF-1 suppression (serum IGF-1; once-daily dosing (10 mg cohort illustrated)): approximately 7 days
- serum IGF-1 change after a single dose (serum IGF-1; single 1.25 to 20 mg dose, compared to Day -1 or placebo): little to no change
- AUC0-inf geometric mean ratio, high-fat high-calorie meal relative to fasted ([4]; 10 mg capsules): 17%
- Cmax geometric mean ratio, high-fat high-calorie meal relative to fasted ([4]; 10 mg capsules): 14%
- AUC0-inf geometric mean ratio, capsule relative to oral solution ([4]; 10 mg, fasted): 69%
- Cmax geometric mean ratio, capsule relative to oral solution ([4]; 10 mg, fasted): 83%
- decrease in Cmax and AUC0-24 with food ([4]; high-fat, high-calorie meal before 10 mg capsule): more than 7 fold
- Tmax ([4]; 10 mg, 10 mg capsules with high-fat, high-calorie meal): 3 h
- Tmax ([4]; 10 mg, 10 mg capsules, fasted): 2.1 h
